Measured values as given in article PMC6496074, “The Evolution of Azole Resistance in Candida albicans Sterol 14α-Demethylase (CYP51) through Incremental Amino Acid Substitutions” (Antimicrobial Agents and Chemotherapy, 2019).
“And” between values parts separate entries of the source, which are not always exact repeats. Equal entries are not always repeated.

Experiments:
Assay in all cases: CYP51 reconstitution assay
Format in all cases: biochemical
CaCYP51 Y132F+F145L = biological target: T1, CaCYP51 Y132F+F145L (Candida albicans, UniProt P10613, F145L/Y132F)
T1 construct: made in house; host or cells: E. coli DH5α (pCWori+)
Method: (§1) Azole antifungal agents were added in 2.5 μl dimethyl sulfoxide, followed by 10 min of incubation at 37°C prior to assay initiation with 4 mM β-NADPH-Na4. The samples were then shaken for 15 min at 37°C. Sterol metabolites were recovered by extraction with ethyl acetate, followed by derivatization with 0.1 ml N,O-bis(trimethylsilyl)trifluoroacetamide (BSTFA)–trimethylchlorosilane (TMCS) (99:1) and 0.3 ml anhydrous pyridine (2 h at 80°C), prior to analysis by gas chromatography-mass spectrometry (GC-MS) ([52]). IC50 determinations were performed in duplicate.

CaCYP51 Y132F+K143R = biological target: T2, CaCYP51 Y132F+K143R (Candida albicans, UniProt P10613, K143R/Y132F)
T2 construct: made in house; host or cells: E. coli DH5α (pCWori+)
Method: as §1

CaCYP51 D278N = biological target: T3, CaCYP51 D278N (Candida albicans, UniProt P10613, D278N)
T3 construct: made in house; host or cells: E. coli DH5α (pCWori+)
Method: as §1

CaCYP51 D278N+G464S = biological target: T4, CaCYP51 D278N+G464S (Candida albicans, UniProt P10613, D278N/G464S)
T4 construct: made in house; host or cells: E. coli DH5α (pCWori+)
Method: as §1

CaCYP51 F126V = biological target: T5, CaCYP51 F126V (Candida albicans, UniProt P10613, F126V)
T5 construct: made in house; host or cells: E. coli DH5α (pCWori+)
Method: as §1

CaCYP51 F145L = biological target: T6, CaCYP51 F145L (Candida albicans, UniProt P10613, F145L)
T6 construct: made in house; host or cells: E. coli DH5α (pCWori+)
Method: as §1

CaCYP51 F449Y = biological target: T7, CaCYP51 F449Y (Candida albicans, UniProt P10613, F449Y)
T7 construct: made in house; host or cells: E. coli DH5α (pCWori+)
Method: as §1

CaCYP51 G307S = biological target: T8, CaCYP51 G307S (Candida albicans, UniProt P10613, G307S)
T8 construct: made in house; host or cells: E. coli DH5α (pCWori+)
Method: as §1

CaCYP51 G307S+G450E = biological target: T9, CaCYP51 G307S+G450E (Candida albicans, UniProt P10613, G307S/G450E)
T9 construct: made in house; host or cells: E. coli DH5α (pCWori+)
Method: as §1

CaCYP51 G448E = biological target: T10, CaCYP51 G448E (Candida albicans, UniProt P10613, G448E)
T10 construct: made in house; host or cells: E. coli DH5α (pCWori+)
Method: as §1

CaCYP51 G450E = biological target: T11, CaCYP51 G450E (Candida albicans, UniProt P10613, G450E)
T11 construct: made in house; host or cells: E. coli DH5α (pCWori+)
Method: as §1

CaCYP51 G464S = biological target: T12, CaCYP51 G464S (Candida albicans, UniProt P10613, G464S)
T12 construct: made in house; host or cells: E. coli DH5α (pCWori+)
Method: as §1

CaCYP51 I471T = biological target: T13, CaCYP51 I471T (Candida albicans, UniProt P10613, I471T)
T13 construct: made in house; host or cells: E. coli DH5α (pCWori+)
Method: as §1

CaCYP51 K143R = biological target: T14, CaCYP51 K143R (Candida albicans, UniProt P10613, K143R)
T14 construct: made in house; host or cells: E. coli DH5α (pCWori+)
Method: as §1

CaCYP51 P230L = biological target: T15, CaCYP51 P230L (Candida albicans, UniProt P10613, P230L)
T15 construct: made in house; host or cells: E. coli DH5α (pCWori+)
Method: as §1

CaCYP51 Q474K = biological target: T16, CaCYP51 Q474K (Candida albicans, UniProt P10613, Q474K)
T16 construct: made in house; host or cells: E. coli DH5α (pCWori+)
Method: as §1

CaCYP51 R467K = biological target: T17, CaCYP51 R467K (Candida albicans, UniProt P10613, R467K)
T17 construct: made in house; host or cells: E. coli DH5α (pCWori+)
Method: as §1

CaCYP51 S279F = biological target: T18, CaCYP51 S279F (Candida albicans, UniProt P10613, S279F)
T18 construct: made in house; host or cells: E. coli DH5α (pCWori+)
Method: as §1

CaCYP51 S405F = biological target: T19, CaCYP51 S405F (Candida albicans, UniProt P10613, S405F)
T19 construct: made in house; host or cells: E. coli DH5α (pCWori+)
Method: as §1

CaCYP51 V437I = biological target: T20, CaCYP51 V437I (Candida albicans, UniProt P10613, V437I)
T20 construct: made in house; host or cells: E. coli DH5α (pCWori+)
Method: as §1

CaCYP51 V456I = biological target: T21, CaCYP51 V456I (Candida albicans, UniProt P10613, V456I)
T21 construct: made in house; host or cells: E. coli DH5α (pCWori+)
Method: as §1

CaCYP51 V488I = biological target: T22, CaCYP51 V488I (Candida albicans, UniProt P10613, V488I)
T22 construct: made in house; host or cells: E. coli DH5α (pCWori+)
Method: as §1

CaCYP51 Wild type = biological target: T23, CaCYP51 Wild type (Candida albicans, UniProt P10613)
T23 construct: made in house; host or cells: E. coli DH5α (pCWori+)
Method: as §1

CaCYP51 Y132F = biological target: T24, CaCYP51 Y132F (Candida albicans, UniProt P10613, Y132F)
T24 construct: made in house; host or cells: E. coli DH5α (pCWori+)
Method: as §1

CaCYP51 Y132H = biological target: T25, CaCYP51 Y132H (Candida albicans, UniProt P10613, Y132H)
T25 construct: made in house; host or cells: E. coli DH5α (pCWori+)
Method: as §1

CaCYP51 Y132H+K143R = biological target: T26, CaCYP51 Y132H+K143R (Candida albicans, UniProt P10613, K143R/Y132H)
T26 construct: made in house; host or cells: E. coli DH5α (pCWori+)
Method: as §1

CaCYP51 Y257H = biological target: T27, CaCYP51 Y257H (Candida albicans, UniProt P10613, Y257H)
T27 construct: made in house; host or cells: E. coli DH5α (pCWori+)
Method: as §1

CaCYP51 Y447H = biological target: T28, CaCYP51 Y447H (Candida albicans, UniProt P10613, Y447H)
T28 construct: made in house; host or cells: E. coli DH5α (pCWori+)
Method: as §1

[1] = 0.25 h, read-out: Residual CYP51 activity (%) ± SD
[2] = 0.25 h, 4 μM triazole, % of activity without triazole, read-out: Residual CYP51 activity (%) ± SD

T26 sequence (P10613 whole entry, looked up, stated change not applied): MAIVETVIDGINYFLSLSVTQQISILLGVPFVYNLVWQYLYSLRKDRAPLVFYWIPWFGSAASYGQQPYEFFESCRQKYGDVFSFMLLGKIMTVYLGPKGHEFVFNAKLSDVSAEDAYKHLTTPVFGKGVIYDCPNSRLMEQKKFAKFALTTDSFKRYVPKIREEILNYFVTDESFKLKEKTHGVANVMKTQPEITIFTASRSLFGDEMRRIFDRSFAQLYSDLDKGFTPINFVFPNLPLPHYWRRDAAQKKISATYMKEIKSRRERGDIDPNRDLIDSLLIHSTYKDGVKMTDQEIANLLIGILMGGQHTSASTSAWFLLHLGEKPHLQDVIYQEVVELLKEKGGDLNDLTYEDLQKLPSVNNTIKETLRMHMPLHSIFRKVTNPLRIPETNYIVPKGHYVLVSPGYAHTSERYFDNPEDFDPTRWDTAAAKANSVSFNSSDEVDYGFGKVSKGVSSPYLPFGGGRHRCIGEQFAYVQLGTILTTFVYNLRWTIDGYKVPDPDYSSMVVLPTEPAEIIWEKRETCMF
T9 sequence (P10613 whole entry, looked up, stated change not applied): as above
T4 sequence (P10613 whole entry, looked up, stated change not applied): as above
T25 sequence (P10613 whole entry, looked up, stated change not applied): as above
T15 sequence (P10613 whole entry, looked up, stated change not applied): as above
T1 sequence (P10613 whole entry, looked up, stated change not applied): as above
T22 sequence (P10613 whole entry, looked up, stated change not applied): as above
T12 sequence (P10613 whole entry, looked up, stated change not applied): as above
T10 sequence (P10613 whole entry, looked up, stated change not applied): as above

With `OC(Cn1cncn1)(Cn1cncn1)c1ccc(F)cc1F` [Fluconazole, fluconazole] the IC50 (CaCYP51 Y132F+F145L) was 3890 ± 77 nM, the remaining activity at 4 µM (CaCYP51 Y132F+F145L; [1]) was 49.1 ± 1.76% and the IC50 (CaCYP51 Y132F+K143R) was 5860 ± 524 nM. For the same compound, the remaining activity at 4 µM (CaCYP51 Y132F+K143R; [1]) was 62 ± 1.21%, the remaining activity at 4 µM (CaCYP51 D278N; [2]) was 7.59 ± 0.58% and the IC50 (CaCYP51 D278N; mean ± SD, duplicate) was 838 ± 27 nM. For the same compound, the “fold increase in IC50 over wild-type enzyme” value (shortened to “fold increase in IC50”) (CaCYP51 D278N+G464S) was 3 fold and 3.2 fold, the remaining activity at 4 µM (CaCYP51 D278N+G464S; [2]) was 18.26 ± 0.08% and the IC50 (CaCYP51 D278N+G464S; mean ± SD, duplicate) was 1240 ± 64 nM. It also gave a remaining activity at 4 µM (CaCYP51 F126V; [2]) of 0.09 ± 0.06%, an IC50 (CaCYP51 F126V; mean ± SD, duplicate) of 278 ± 27 nM and a remaining activity at 4 µM (CaCYP51 F145L; [2]) of 6.71 ± 0.15%. For the same compound, the IC50 (CaCYP51 F145L; mean ± SD, duplicate) was 450 ± 83 nM, the remaining activity at 4 µM (CaCYP51 F449Y; [2]) was 0.76 ± 0.08% and the IC50 (CaCYP51 F449Y; mean ± SD, duplicate) was 245 ± 28 nM. The remaining activity at 4 µM (CaCYP51 G307S; [2]) was 0.95 ± 0.17%, the IC50 (CaCYP51 G307S; mean ± SD, duplicate) was 526 ± 211 nM and the “fold increase in IC50” value (CaCYP51 G307S+G450E) was 13 fold. It also gave a remaining activity at 4 µM (CaCYP51 G307S+G450E; [2]) of 56.8 ± 2.3%, an IC50 (CaCYP51 G307S+G450E; mean ± SD, duplicate) of 4980 ± 54 nM and a remaining activity at 4 µM (CaCYP51 G448E; [2]) of 10.5 ± 0.2%. It also gave an IC50 (CaCYP51 G448E; mean ± SD, duplicate) of 796 ± 87 nM, a remaining activity at 4 µM (CaCYP51 G450E; [2]) of 18.9 ± 0.94% and an IC50 (CaCYP51 G450E; mean ± SD, duplicate) of 1080 ± 247 nM. For the same compound, the remaining activity at 4 µM (CaCYP51 G464S; [2]) was 3.05 ± 0.17%, the IC50 (CaCYP51 G464S; mean ± SD, duplicate) was 455 ± 47 nM and the remaining activity at 4 µM (CaCYP51 I471T; [2]) was 4.35 ± 0.33%. The IC50 (CaCYP51 I471T; mean ± SD, duplicate) was 600 ± 17 nM, the remaining activity at 4 µM (CaCYP51 K143R; [2]) was 28.1 ± 2.04% and the IC50 (CaCYP51 K143R; mean ± SD, duplicate) was 1100 ± 313 nM. For the same compound, the remaining activity at 4 µM (CaCYP51 P230L; [2]) was 0.05 ± 0.03%, the IC50 (CaCYP51 P230L; mean ± SD, duplicate) was 334 ± 86 nM and the remaining activity at 4 µM (CaCYP51 Q474K; [2]) was 0.71 ± 0.08%. The IC50 (CaCYP51 Q474K; mean ± SD, duplicate) was 358 ± 8 nM, the remaining activity at 4 µM (CaCYP51 R467K; [2]) was 3.34 ± 0.61% and the IC50 (CaCYP51 R467K; mean ± SD, duplicate) was 476 ± 80 nM. The remaining activity at 4 µM (CaCYP51 S279F; [2]) was 18 ± 1.67%, the IC50 (CaCYP51 S279F; mean ± SD, duplicate) was 1050 ± 325 nM and the remaining activity at 4 µM (CaCYP51 S405F; [2]) was 11.6 ± 1.41%. The IC50 (CaCYP51 S405F; mean ± SD, duplicate) was 820 ± 42 nM, the remaining activity at 4 µM (CaCYP51 V437I; [2]) was 0.22 ± 0.06% and the IC50 (CaCYP51 V437I; mean ± SD, duplicate) was 281 ± 4 nM. The remaining activity at 4 µM (CaCYP51 V456I; [2]) was 3.68 ± 0.95%, the IC50 (CaCYP51 V456I; mean ± SD, duplicate) was 483 ± 22 nM and the remaining activity at 4 µM (CaCYP51 V488I; [2]) was 1.06 ± 0.04%. It also gave an IC50 (CaCYP51 V488I; mean ± SD, duplicate) of 520 ± 57 nM, a remaining activity at 4 µM (CaCYP51 Wild type; [1]) of 0.11 ± 0.09% and an IC50 (CaCYP51 Wild type; IC50) of 384 ± 19 nM. The remaining activity at 4 µM (CaCYP51 Y132F; [2]) was 7.05 ± 0.27%, the IC50 (CaCYP51 Y132F; mean ± SD, duplicate) was 606 ± 66 nM and the remaining activity at 4 µM (CaCYP51 Y132H; [2]) was 0.86 ± 0.07%. For the same compound, the IC50 (CaCYP51 Y132H; mean ± SD, duplicate) was 220 ± 13 nM, the “fold increase in IC50” value (CaCYP51 Y132H+K143R) was 22 fold and 22.1 fold and the remaining activity at 4 µM (CaCYP51 Y132H+K143R; [2]) was 68.8 ± 5.68%. It also gave an IC50 (CaCYP51 Y132H+K143R; mean ± SD, duplicate) of 8470 ± 1270 nM, a remaining activity at 4 µM (CaCYP51 Y257H; [2]) of 3.96 ± 0.18% and an IC50 (CaCYP51 Y257H; mean ± SD, duplicate) of 512 ± 47 nM. For the same compound, the remaining activity at 4 µM (CaCYP51 Y447H; [2]) was 4.34 ± 0.51% and the IC50 (CaCYP51 Y447H; mean ± SD, duplicate) was 483 ± 18 nM.
